Experiment [1] addresses Metabotropic glutamate receptor 2 (Homo sapiens) (UniProt Q14416). The experiment is described as follows: Activity at mGluR2 receptor at 100 uM.
Experiment [2] addresses Metabotropic glutamate receptor 1 (Homo sapiens) (UniProt Q13255). The experiment is described as follows: Activity at mGluR1 receptor at 100 uM.
For experiment [3], the target named is Metabotropic glutamate receptor 3 (Homo sapiens) (UniProt Q14832). The experiment is described as follows: Activity at mGluR3 receptor at 100 uM.
Metabotropic glutamate receptor 3 (Homo sapiens), sequence (Q14832 23-879 limits assumed): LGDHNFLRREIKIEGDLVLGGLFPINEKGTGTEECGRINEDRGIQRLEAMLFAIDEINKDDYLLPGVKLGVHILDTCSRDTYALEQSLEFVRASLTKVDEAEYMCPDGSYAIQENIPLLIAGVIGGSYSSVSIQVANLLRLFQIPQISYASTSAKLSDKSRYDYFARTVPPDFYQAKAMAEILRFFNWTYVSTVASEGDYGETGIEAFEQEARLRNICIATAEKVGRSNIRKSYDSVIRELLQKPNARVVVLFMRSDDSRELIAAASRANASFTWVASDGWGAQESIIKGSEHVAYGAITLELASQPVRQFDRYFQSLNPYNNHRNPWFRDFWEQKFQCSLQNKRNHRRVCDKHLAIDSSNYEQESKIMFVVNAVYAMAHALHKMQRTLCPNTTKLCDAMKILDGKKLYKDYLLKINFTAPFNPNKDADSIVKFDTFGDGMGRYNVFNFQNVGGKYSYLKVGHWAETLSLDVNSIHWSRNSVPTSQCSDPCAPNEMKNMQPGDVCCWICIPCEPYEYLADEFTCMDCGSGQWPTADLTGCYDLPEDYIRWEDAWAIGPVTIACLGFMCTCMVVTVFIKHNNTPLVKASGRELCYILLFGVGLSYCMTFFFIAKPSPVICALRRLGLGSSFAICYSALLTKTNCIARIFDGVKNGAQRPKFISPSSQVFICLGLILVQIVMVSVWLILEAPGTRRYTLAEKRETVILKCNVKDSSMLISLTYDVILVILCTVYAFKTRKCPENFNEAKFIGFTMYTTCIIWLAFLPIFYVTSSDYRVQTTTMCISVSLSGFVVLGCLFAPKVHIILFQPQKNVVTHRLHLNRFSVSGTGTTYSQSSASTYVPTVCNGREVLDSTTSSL
Experiment [4] concerns the target Metabotropic glutamate receptor 5 (Homo sapiens) (UniProt P41594). The experiment is described as follows: Activity at mGluR5 receptor at 100 uM.
The target in experiment [5] is Metabotropic glutamate receptor 6 (Rattus norvegicus, UniProt P35349). The experiment is described as follows: Agonist activity at rat mGluR6 receptor expressed HEK293 cells assessed as effect on inositol phosphate production. In kind it is functional, cell-based.
In experiment [6] the target is Metabotropic glutamate receptor 7 (Rattus norvegicus, UniProt P35400). Put plainly: Agonist activity at rat mGluR7 receptor expressed HEK293 cells assessed as effect on inositol phosphate production. In kind it is functional, cell-based.
Metabotropic glutamate receptor 7, sequence (P35400 whole entry): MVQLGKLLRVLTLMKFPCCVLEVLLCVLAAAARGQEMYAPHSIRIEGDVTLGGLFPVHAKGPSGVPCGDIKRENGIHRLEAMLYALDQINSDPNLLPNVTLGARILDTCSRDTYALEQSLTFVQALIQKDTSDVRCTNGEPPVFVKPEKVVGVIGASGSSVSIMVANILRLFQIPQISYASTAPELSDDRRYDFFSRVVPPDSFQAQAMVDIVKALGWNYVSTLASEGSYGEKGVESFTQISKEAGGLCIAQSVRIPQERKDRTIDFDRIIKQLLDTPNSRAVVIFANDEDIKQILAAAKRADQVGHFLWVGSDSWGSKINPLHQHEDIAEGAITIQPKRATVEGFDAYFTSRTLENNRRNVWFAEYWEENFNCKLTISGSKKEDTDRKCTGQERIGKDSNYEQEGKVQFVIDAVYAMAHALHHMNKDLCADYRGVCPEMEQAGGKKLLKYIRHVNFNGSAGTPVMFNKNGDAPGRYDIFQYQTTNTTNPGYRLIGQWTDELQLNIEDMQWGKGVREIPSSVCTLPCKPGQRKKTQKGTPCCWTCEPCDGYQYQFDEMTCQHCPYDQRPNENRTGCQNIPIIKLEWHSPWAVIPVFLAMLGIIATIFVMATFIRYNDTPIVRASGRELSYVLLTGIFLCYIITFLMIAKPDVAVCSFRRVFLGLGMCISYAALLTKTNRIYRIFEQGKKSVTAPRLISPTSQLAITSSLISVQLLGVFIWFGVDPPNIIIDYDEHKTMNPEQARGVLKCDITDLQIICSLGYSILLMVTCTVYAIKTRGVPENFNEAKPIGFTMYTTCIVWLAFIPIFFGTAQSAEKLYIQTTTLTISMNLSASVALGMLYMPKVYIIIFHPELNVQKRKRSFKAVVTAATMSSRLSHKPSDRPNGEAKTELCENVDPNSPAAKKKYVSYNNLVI
Experiment [7] deals with Metabotropic glutamate receptor 8 (Rattus norvegicus, UniProt P70579). Put plainly: Agonist activity at rat mGluR8 receptor expressed HEK293 cells assessed as effect on inositol phosphate production. The format is functional, cell-based.
The target of experiment [8] is Metabotropic glutamate receptor 4 (Rattus norvegicus, UniProt P31423). The experiment is described as follows: Agonist activity at rat mGluR4 receptor expressed HEK293 cells assessed as effect on inositol phosphate production. The format is functional, cell-based.

Drawing on ChEMBL document CHEMBL1148786, “L-(+)-2-Amino-4-thiophosphonobutyric acid (L-thioAP4), a new potent agonist of group III metabotropic glutamate receptors: increased distal acidity affords enhanced potency” (J Med Chem, 2007), this text covers Activity and EC50 for four compounds.

Activity calls are given as the source filed them. No cut-off for these calls is given here.

Metabotropic glutamate receptor 2 (Homo sapiens), sequence (Q14416 19-872 limits assumed): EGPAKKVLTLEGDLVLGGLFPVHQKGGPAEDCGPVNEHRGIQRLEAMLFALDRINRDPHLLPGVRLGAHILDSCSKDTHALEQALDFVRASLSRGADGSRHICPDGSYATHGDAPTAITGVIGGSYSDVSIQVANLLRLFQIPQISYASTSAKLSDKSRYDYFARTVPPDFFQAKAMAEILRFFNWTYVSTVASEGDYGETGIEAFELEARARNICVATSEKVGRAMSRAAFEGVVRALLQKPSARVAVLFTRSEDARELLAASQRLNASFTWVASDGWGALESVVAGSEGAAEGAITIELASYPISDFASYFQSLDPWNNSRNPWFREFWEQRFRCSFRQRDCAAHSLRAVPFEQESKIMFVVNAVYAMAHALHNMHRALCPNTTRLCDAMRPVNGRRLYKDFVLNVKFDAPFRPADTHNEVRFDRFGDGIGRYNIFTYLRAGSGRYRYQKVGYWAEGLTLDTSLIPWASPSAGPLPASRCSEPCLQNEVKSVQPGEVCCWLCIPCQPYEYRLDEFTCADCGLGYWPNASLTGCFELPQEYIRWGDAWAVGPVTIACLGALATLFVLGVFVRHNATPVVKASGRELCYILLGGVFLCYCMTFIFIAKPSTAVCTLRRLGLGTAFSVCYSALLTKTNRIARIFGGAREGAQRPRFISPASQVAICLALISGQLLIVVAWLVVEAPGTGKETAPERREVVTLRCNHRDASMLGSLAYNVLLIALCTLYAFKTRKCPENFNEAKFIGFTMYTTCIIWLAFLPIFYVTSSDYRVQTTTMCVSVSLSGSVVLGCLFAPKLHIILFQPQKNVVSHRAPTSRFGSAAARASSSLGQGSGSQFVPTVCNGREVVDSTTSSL
Metabotropic glutamate receptor 5 (Homo sapiens), sequence (P41594 21-1212 limits assumed): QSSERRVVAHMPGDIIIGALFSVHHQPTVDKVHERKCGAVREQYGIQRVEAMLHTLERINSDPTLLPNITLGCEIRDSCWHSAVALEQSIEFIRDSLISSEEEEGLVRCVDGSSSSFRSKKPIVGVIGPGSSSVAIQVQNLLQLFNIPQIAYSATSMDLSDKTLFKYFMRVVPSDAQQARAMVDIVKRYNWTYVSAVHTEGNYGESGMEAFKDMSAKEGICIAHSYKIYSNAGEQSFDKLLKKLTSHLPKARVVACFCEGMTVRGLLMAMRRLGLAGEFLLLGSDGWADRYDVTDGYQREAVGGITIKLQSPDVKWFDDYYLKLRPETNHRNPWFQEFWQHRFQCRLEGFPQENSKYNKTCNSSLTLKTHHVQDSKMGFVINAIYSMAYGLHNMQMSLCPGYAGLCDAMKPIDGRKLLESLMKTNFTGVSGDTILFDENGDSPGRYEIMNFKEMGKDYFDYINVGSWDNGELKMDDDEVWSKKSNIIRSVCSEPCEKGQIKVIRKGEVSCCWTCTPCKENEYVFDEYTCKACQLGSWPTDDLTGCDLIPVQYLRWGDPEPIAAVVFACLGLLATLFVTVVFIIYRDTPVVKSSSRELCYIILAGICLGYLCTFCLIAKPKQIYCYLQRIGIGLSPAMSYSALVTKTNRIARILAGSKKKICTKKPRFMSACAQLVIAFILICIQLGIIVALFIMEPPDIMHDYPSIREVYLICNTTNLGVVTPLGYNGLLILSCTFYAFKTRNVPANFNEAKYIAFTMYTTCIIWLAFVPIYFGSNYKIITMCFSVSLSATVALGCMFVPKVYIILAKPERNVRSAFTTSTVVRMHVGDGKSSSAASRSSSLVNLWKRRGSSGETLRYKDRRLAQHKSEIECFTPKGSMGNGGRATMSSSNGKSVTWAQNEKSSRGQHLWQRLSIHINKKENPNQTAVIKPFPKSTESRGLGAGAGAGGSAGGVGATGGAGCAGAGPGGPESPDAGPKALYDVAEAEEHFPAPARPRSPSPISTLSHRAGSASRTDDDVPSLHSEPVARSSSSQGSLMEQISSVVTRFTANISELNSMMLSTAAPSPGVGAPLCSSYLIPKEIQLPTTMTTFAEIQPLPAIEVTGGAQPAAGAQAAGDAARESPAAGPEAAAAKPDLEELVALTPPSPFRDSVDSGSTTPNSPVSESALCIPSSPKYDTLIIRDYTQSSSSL
Metabotropic glutamate receptor 1 (Homo sapiens), sequence (Q13255 19-1194 limits assumed): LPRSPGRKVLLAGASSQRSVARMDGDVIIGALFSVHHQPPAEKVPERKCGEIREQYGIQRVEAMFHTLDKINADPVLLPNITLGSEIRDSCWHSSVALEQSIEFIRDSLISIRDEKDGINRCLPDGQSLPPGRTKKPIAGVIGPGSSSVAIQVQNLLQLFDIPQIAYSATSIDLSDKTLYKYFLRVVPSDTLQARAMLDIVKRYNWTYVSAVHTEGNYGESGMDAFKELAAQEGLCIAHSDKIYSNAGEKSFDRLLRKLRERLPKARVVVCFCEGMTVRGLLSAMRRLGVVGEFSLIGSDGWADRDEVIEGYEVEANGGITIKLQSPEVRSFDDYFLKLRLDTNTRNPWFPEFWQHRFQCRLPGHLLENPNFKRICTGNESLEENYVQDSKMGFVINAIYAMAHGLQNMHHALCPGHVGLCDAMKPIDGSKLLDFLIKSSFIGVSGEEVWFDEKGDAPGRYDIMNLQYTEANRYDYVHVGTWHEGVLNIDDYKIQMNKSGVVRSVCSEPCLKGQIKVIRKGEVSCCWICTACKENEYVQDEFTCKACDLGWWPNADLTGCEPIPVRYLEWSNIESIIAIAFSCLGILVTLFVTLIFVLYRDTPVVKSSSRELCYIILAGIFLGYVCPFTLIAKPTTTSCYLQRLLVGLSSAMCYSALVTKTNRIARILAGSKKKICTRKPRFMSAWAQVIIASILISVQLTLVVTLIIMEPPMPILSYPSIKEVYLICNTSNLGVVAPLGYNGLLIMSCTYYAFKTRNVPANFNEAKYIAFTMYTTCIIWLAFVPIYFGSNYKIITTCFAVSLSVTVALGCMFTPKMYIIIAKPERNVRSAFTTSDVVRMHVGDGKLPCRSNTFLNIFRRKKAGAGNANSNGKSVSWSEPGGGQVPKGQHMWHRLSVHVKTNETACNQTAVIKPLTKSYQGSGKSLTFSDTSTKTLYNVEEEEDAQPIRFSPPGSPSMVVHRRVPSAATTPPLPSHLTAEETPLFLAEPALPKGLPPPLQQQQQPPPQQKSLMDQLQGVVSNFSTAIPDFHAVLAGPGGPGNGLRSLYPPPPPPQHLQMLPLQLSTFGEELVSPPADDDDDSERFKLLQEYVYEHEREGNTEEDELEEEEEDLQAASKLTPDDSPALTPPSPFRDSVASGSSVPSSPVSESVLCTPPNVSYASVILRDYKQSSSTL

As to `N[C@@H](CCP(O)(O)=S)C(=O)O`, the outcome in experiment [1], in experiment [2], in experiment [3] and in experiment [4] was inactive.
Regarding `N[C@@H](CCP(=O)(O)O)C(=O)O`, the result in experiment [1], in experiment [2], in experiment [3] and in experiment [4] was inactive.
What is called EC50 is the concentration that produces a half-maximal response. Regarding `CP(=O)(O)CC[C@H](N)C(=O)O` [PHOSPHINOTHRICIN], the EC50 was > 500 µM in experiment [5], > 500 µM in experiment [6], 412 µM in experiment [7] and 1100 µM in experiment [8]. Further, the outcome in experiment [1], in experiment [2], in experiment [3] and in experiment [4] was inactive.
`N[C@@H](CC[PH](=O)O)C(=O)O`: the EC50 is 27.8 µM in experiment [5], > 500 µM in experiment [6], 1.72 µM in experiment [7] and 4.05 µM in experiment [8]. Also, the outcome in experiment [1], in experiment [2], in experiment [3] and in experiment [4] was inactive.
